From PubChem BioAssay (NCI)
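Five concentrations, 48 hours, 96-well plates. Here, GI50 denotes the concentration required for 50% inhibition of growth. The concentration for full growth arrest is given as TGI.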

Legend:
Experiment in all cases: growth of human tumour cells (NCI), 48 h
A549 NSCLC = tested on: A549 NSCLC
MDA-MB-435 = tested on: MDA-MB-435
A498 renal = tested on: A498 renal
786-0 renal = tested on: 786-0 renal
ACHN renal = tested on: ACHN renal
SN12C renal = tested on: SN12C renal
HCC-2998 colon = tested on: HCC-2998 colon
OVCAR-5 ovarian = tested on: OVCAR-5 ovarian
OVCAR-4 ovarian = tested on: OVCAR-4 ovarian
SK-OV-3 ovarian = tested on: SK-OV-3 ovarian
MCF7 breast = tested on: MCF7 breast
SF-539 CNS = tested on: SF-539 CNS
NCI-H226 lung = tested on: NCI-H226 lung
SF-295 CNS = tested on: SF-295 CNS
DU-145 prostate = tested on: DU-145 prostate
UO-31 renal = tested on: UO-31 renal
SNB-19 CNS = tested on: SNB-19 CNS
CAKI-1 renal = tested on: CAKI-1 renal
NCI/ADR-RES ovarian = tested on: NCI/ADR-RES ovarian
EKVX NSCLC = tested on: EKVX NSCLC
COLO 205 colon = tested on: COLO 205 colon
K-562 leukemia = tested on: K-562 leukemia
MDA-MB-231 breast = tested on: MDA-MB-231 breast
UACC-62 melanoma = tested on: UACC-62 melanoma
SK-MEL-28 melanoma = tested on: SK-MEL-28 melanoma
HCT-15 colon = tested on: HCT-15 colon
SK-MEL-5 melanoma = tested on: SK-MEL-5 melanoma
RXF 393 renal = tested on: RXF 393 renal
LOX IMVI melanoma = tested on: LOX IMVI melanoma
OVCAR-3 ovarian = tested on: OVCAR-3 ovarian
U251 CNS = tested on: U251 CNS
SF-268 CNS = tested on: SF-268 CNS
KM12 colon = tested on: KM12 colon
RPMI-8226 leukemia = tested on: RPMI-8226 leukemia
SW-620 colon = tested on: SW-620 colon
HCT-116 colon = tested on: HCT-116 colon
TK-10 renal = tested on: TK-10 renal
MDA-N = tested on: MDA-N
MOLT-4 leukemia = tested on: MOLT-4 leukemia
CCRF-CEM leukemia = tested on: CCRF-CEM leukemia
HOP-62 NSCLC = tested on: HOP-62 NSCLC
SNB-75 CNS = tested on: SNB-75 CNS
T-47D breast = tested on: T-47D breast
M14 melanoma = tested on: M14 melanoma
PC-3 prostate = tested on: PC-3 prostate
HS 578T breast = tested on: HS 578T breast
SK-MEL-2 melanoma = tested on: SK-MEL-2 melanoma
HOP-92 NSCLC = tested on: HOP-92 NSCLC
UACC-257 melanoma = tested on: UACC-257 melanoma
NCI-H460 lung = tested on: NCI-H460 lung
BT-549 breast = tested on: BT-549 breast
NCI-H23 lung = tested on: NCI-H23 lung
MALME-3M melanoma = tested on: MALME-3M melanoma
HT29 colon = tested on: HT29 colon
HL-60(TB) leukemia = tested on: HL-60(TB) leukemia
SR leukemia = tested on: SR leukemia
NCI-H522 lung = tested on: NCI-H522 lung
OVCAR-8 ovarian = tested on: OVCAR-8 ovarian
IGROV1 ovarian = tested on: IGROV1 ovarian

Work on `Cc1cccc(-c2cc(=S)c3cc(N4CCCC4)ccc3[nH]2)c1` yielded a TGI (A549 NSCLC) greater than 100000 nM, a TGI (MDA-MB-435) greater than 100000 nM and a TGI (A498 renal) greater than 100000 nM. It also gave a TGI (786-0 renal) greater than 100000 nM, a TGI (ACHN renal) greater than 100000 nM and a TGI (SN12C renal) greater than 100000 nM. The TGI (HCC-2998 colon) was greater than 100000 nM, the TGI (OVCAR-5 ovarian) was greater than 100000 nM and the TGI (OVCAR-4 ovarian) was greater than 100000 nM. The TGI (SK-OV-3 ovarian) was greater than 100000 nM, the TGI (MCF7 breast) was greater than 100000 nM and the TGI (SF-539 CNS) was greater than 100000 nM. The TGI (NCI-H226 lung) was greater than 100000 nM, the TGI (SF-295 CNS) was greater than 100000 nM and the TGI (DU-145 prostate) was greater than 100000 nM. For the same compound, the TGI (UO-31 renal) was greater than 100000 nM, the TGI (SNB-19 CNS) was greater than 100000 nM and the TGI (CAKI-1 renal) was greater than 100000 nM. It also gave a TGI (NCI/ADR-RES ovarian) greater than 100000 nM, a TGI (EKVX NSCLC) greater than 100000 nM and a TGI (COLO 205 colon) greater than 100000 nM. The TGI (K-562 leukemia) was greater than 100000 nM, the TGI (MDA-MB-231 breast) was greater than 100000 nM and the TGI (UACC-62 melanoma) was greater than 100000 nM. For the same compound, the TGI (SK-MEL-28 melanoma) was greater than 100000 nM, the TGI (HCT-15 colon) was greater than 100000 nM and the TGI (SK-MEL-5 melanoma) was greater than 100000 nM. It also gave a TGI (RXF 393 renal) greater than 100000 nM, a TGI (LOX IMVI melanoma) greater than 100000 nM and a TGI (OVCAR-3 ovarian) greater than 100000 nM. For the same compound, the TGI (U251 CNS) was greater than 100000 nM, the TGI (SF-268 CNS) was greater than 100000 nM and the TGI (KM12 colon) was greater than 100000 nM. For the same compound, the TGI (RPMI-8226 leukemia) was greater than 100000 nM, the TGI (SW-620 colon) was greater than 100000 nM and the TGI (HCT-116 colon) was greater than 100000 nM. For the same compound, the TGI (TK-10 renal) was greater than 100000 nM, the TGI (MDA-N) was greater than 100000 nM and the TGI (MOLT-4 leukemia) was greater than 100000 nM. It also gave a TGI (CCRF-CEM leukemia) greater than 100000 nM, a TGI (HOP-62 NSCLC) greater than 100000 nM and a TGI (SNB-75 CNS) greater than 100000 nM. It also gave a TGI (T-47D breast) greater than 100000 nM, a TGI (M14 melanoma) greater than 100000 nM and a TGI (PC-3 prostate) greater than 100000 nM. The TGI (HS 578T breast) was greater than 100000 nM, the TGI (SK-MEL-2 melanoma) was greater than 100000 nM and the TGI (HOP-92 NSCLC) was greater than 100000 nM. The TGI (UACC-257 melanoma) was greater than 100000 nM.

With `CCC(=C/[C@H](C)C/C=C/C(C)=C/[C@@H](C)C(=O)[C@@H](C)[C@H](O)[C@@H](C)CC)/C=C/[C@H]1OC(=O)C=C[C@H]1C` the GI50 (A549 NSCLC) was less than 10 nM, the TGI (A549 NSCLC) was 1930 nM and the GI50 (MDA-MB-435) was less than 10 nM. The TGI (MDA-MB-435) was 25.6 nM, the GI50 (A498 renal) was less than 10 nM and the TGI (A498 renal) was less than 24 nM. It also gave a GI50 (786-0 renal) of less than 10 nM, a TGI (786-0 renal) of 642 nM and a GI50 (NCI-H460 lung) of less than 10 nM. It also gave a TGI (NCI-H460 lung) of 1100 nM, a GI50 (ACHN renal) of less than 10 nM and a TGI (ACHN renal) of 1370 nM. For the same compound, the GI50 (SN12C renal) was less than 10 nM, the TGI (SN12C renal) was 1360 nM and the GI50 (HCC-2998 colon) was less than 10 nM. The TGI (HCC-2998 colon) was less than 10 nM, the GI50 (OVCAR-5 ovarian) was less than 10 nM and the TGI (OVCAR-5 ovarian) was 1350 nM. It also gave a GI50 (OVCAR-4 ovarian) of less than 10 nM, a TGI (OVCAR-4 ovarian) of 1290 nM and a GI50 (SK-OV-3 ovarian) of less than 22.1 nM. It also gave a TGI (SK-OV-3 ovarian) of 3440 nM, a GI50 (MCF7 breast) of less than 10 nM and a TGI (MCF7 breast) of 1180 nM. The GI50 (SF-539 CNS) was less than 10 nM, the TGI (SF-539 CNS) was 439 nM and the GI50 (NCI-H226 lung) was less than 10 nM. It also gave a TGI (NCI-H226 lung) of 598 nM, a GI50 (BT-549 breast) of less than 10 nM and a GI50 (SF-295 CNS) of less than 10 nM. The TGI (SF-295 CNS) was 1360 nM, the GI50 (DU-145 prostate) was less than 10 nM and the TGI (DU-145 prostate) was 2690 nM. For the same compound, the GI50 (NCI-H23 lung) was less than 10 nM, the TGI (NCI-H23 lung) was 1500 nM and the GI50 (UO-31 renal) was less than 10 nM. For the same compound, the TGI (UO-31 renal) was 1150 nM, the GI50 (SNB-19 CNS) was less than 10 nM and the TGI (SNB-19 CNS) was 1290 nM. It also gave a GI50 (CAKI-1 renal) of less than 10 nM, a TGI (CAKI-1 renal) of 1800 nM and a GI50 (NCI/ADR-RES ovarian) of less than 10 nM. For the same compound, the TGI (NCI/ADR-RES ovarian) was 1390 nM, the GI50 (MALME-3M melanoma) was less than 10 nM and the GI50 (EKVX NSCLC) was 288 nM. The TGI (EKVX NSCLC) was 11600 nM, the GI50 (COLO 205 colon) was less than 10 nM and the TGI (COLO 205 colon) was 68.4 nM. It also gave a GI50 (K-562 leukemia) of less than 10 nM, a TGI (K-562 leukemia) of less than 10 nM and a GI50 (MDA-MB-231 breast) of less than 10 nM. The TGI (MDA-MB-231 breast) was 1500 nM, the GI50 (HT29 colon) was less than 10 nM and the TGI (HT29 colon) was 1200 nM. The GI50 (UACC-62 melanoma) was less than 10 nM, the TGI (UACC-62 melanoma) was 75.5 nM and the GI50 (SK-MEL-28 melanoma) was less than 10 nM. The TGI (SK-MEL-28 melanoma) was 1110 nM, the GI50 (HCT-15 colon) was less than 10 nM and the TGI (HCT-15 colon) was 1170 nM. The GI50 (SK-MEL-5 melanoma) was less than 10 nM, the TGI (SK-MEL-5 melanoma) was 43.7 nM and the GI50 (RXF 393 renal) was less than 10 nM. For the same compound, the TGI (RXF 393 renal) was less than 10 nM, the GI50 (HL-60(TB) leukemia) was less than 10 nM and the TGI (HL-60(TB) leukemia) was less than 40 nM. The GI50 (LOX IMVI melanoma) was less than 10 nM, the TGI (LOX IMVI melanoma) was 1110 nM and the GI50 (OVCAR-3 ovarian) was less than 10 nM. For the same compound, the GI50 (U251 CNS) was less than 10 nM, the TGI (U251 CNS) was 1350 nM and the GI50 (SR leukemia) was less than 10 nM. The GI50 (SF-268 CNS) was less than 10 nM, the TGI (SF-268 CNS) was 1460 nM and the GI50 (KM12 colon) was less than 10 nM. It also gave a TGI (KM12 colon) of 113 nM, a GI50 (RPMI-8226 leukemia) of less than 10 nM and a TGI (RPMI-8226 leukemia) of 42.1 nM. For the same compound, the GI50 (SW-620 colon) was less than 10 nM, the TGI (SW-620 colon) was 1900 nM and the GI50 (HCT-116 colon) was less than 10 nM. It also gave a TGI (HCT-116 colon) of 10.2 nM, a GI50 (TK-10 renal) of less than 10 nM and a TGI (TK-10 renal) of 1520 nM. The GI50 (MOLT-4 leukemia) was less than 10 nM, the GI50 (CCRF-CEM leukemia) was less than 10 nM and the TGI (CCRF-CEM leukemia) was 9070 nM. It also gave a GI50 (HOP-62 NSCLC) of less than 10 nM, a TGI (HOP-62 NSCLC) of 1130 nM and a GI50 (SNB-75 CNS) of less than 10 nM. It also gave a TGI (SNB-75 CNS) of 85.4 nM, a GI50 (NCI-H522 lung) of less than 10 nM and a TGI (NCI-H522 lung) of less than 10 nM. For the same compound, the GI50 (OVCAR-8 ovarian) was less than 10 nM, the TGI (OVCAR-8 ovarian) was 1270 nM and the GI50 (T-47D breast) was less than 10 nM. The TGI (T-47D breast) was 880 nM, the GI50 (IGROV1 ovarian) was less than 10 nM and the TGI (IGROV1 ovarian) was 1270 nM. The GI50 (M14 melanoma) was less than 10 nM, the TGI (M14 melanoma) was 132 nM and the GI50 (PC-3 prostate) was less than 10 nM. It also gave a TGI (PC-3 prostate) of 1570 nM, a GI50 (HS 578T breast) of less than 10 nM and a TGI (HS 578T breast) of 438 nM. It also gave a GI50 (SK-MEL-2 melanoma) of less than 10 nM, a TGI (SK-MEL-2 melanoma) of less than 10 nM and a GI50 (HOP-92 NSCLC) of less than 10 nM. For the same compound, the TGI (HOP-92 NSCLC) was 722 nM, the GI50 (UACC-257 melanoma) was less than 10 nM and the TGI (UACC-257 melanoma) was 1550 nM.
